In US9593305B2, “Differentiation of pluripotent stem cells” (Janssen Biotech, Inc., priority 2008, dated 2017):

Tested on: H1 human embryonic stem cells
Assay: Primary screening: definitive endoderm differentiation in the absence of activin A, cell number and SOX17 (Example 3)
Type: cell-based
Conditions: for Cell Number: % of positive control / Sox17 Expression: % of positive control / Sox17 Expression: Average Total Intensity / Cell Number: Average Total Cell Number: 2.5 μM compound, 20 ng/ml Wnt3a days 1-2, no activin A, four-day assay; for Cell Number: Average Total Cell Number: positive control 100 ng/ml activin A + Wnt3a; for Cell Number, % of positive control / Sox17 Intensity % of positive control: Table 2 hit subset of primary screening, no activin A; for Cell Number, % of positive control / Sox17 Intensity % of positive control / SOX17 expression in the absence of activin A: 2.5 μM; for SOX17 expression in the absence of activin A: primary screening
Protocol: Briefly, clusters of H1 human embryonic stem cells were grown on reduced growth factor […]™ (Invitrogen; Cat #1356231)-coated tissue culture plastic. Cells were passaged using collagenase (Invitrogen; Cat #17104-019) treatment and gentle scraping, washed to remove residual enzyme, and plated with even dispersal at a ratio of 1:1 (surface area) on reduced growth factor […]™-coated 96-well black plates (Packard ViewPlates; PerkinElmer; Cat #6005182) using volumes of 100 μl/well. Cells were allowed to attach as clusters and then recover log phase growth over a 1 to 3 day period, feeding daily with MEF conditioned medium supplemented with 8 ng/ml bFGF (R&D Systems; Cat #233-FB). Plates were maintained at 37° C., 5% CO2 in a humidified box throughout the duration of assay.
The compounds tested were made available as 5 mM stocks in 96-well plate format, solubilized in 100% DMSO (Sigma; Cat #D2650) and stored at −80° C. The library compounds were further diluted to an intermediate concentration of 0.2 mM in 50 mM HEPES (Invitrogen; Cat #15630-080), 20% DMSO and stored at 4° C. Test conditions were performed in triplicate, feeding on alternate days over a four-day assay period. Primary screening assays were initiated by aspirating culture medium from each well followed by three washes in PBS (Invitrogen; Cat #14190) to remove residual growth factors and serum. On the first day of assay, test volumes of 200 μl per well were added back containing DMEM:F12 base medium (Invitrogen; Cat #11330-032) supplemented with 0.5% FCS (HyClone; Cat #SH30070.03) and 20 ng/ml Wnt3a (R&D Systems; Cat #1324-WN) plus 2.5 μM test compound. On the third day of assay, test volumes of 200 μl per well were added back containing DMEM:F12 base medium supplemented with 2% FCS plus 2.5 μM test compound, without Wnt3a. Positive control samples contained the same base medium supplemented with FCS, substituting 100 ng/ml recombinant human activin A (PeproTech; Cat #120-14) for the test compound throughout the four-day assay along with Wnt3a (20 ng/ml) added only on days 1 and 2. Negative control samples contained DMEM:F12 base medium supplemented with FCS, adding Wnt3a on days 1 and 2 but omitting activin A.
At the conclusion of four-days of culture, assay plates were washed twice with PBS (Invitrogen; Cat #14190), fixed with 4% paraformaldehyde (Alexis Biochemical; Cat #ALX-350-011) at room temperature for 20 minutes, then washed three times with PBS and permeabilized with 0.5% Triton X-100 (Sigma; Cat #T8760-2) for 20 minutes at room temperature. Cells were washed again three times with PBS and blocked with 4% chicken serum (Invitrogen; Cat #16110082) in PBS for 30 minutes at room temperature. Primary antibody (goat anti-human SOX17; R&D Systems; Cat #AF1924) was diluted 1:100 in 4% chicken serum and added to each well for one hour at room temperature. Alexa Fluor 488 conjugated secondary antibody (chicken anti-goat IgG; Molecular Probes; Cat #AZ1467) was diluted 1:200 in PBS and added to each sample well after washing three times with PBS. To counter stain nuclei, 4 μg/ml Hoechst 33342 (Invitrogen; Cat #H3570) was added for ten minutes at room temperature. Plates were washed once with PBS and left in 100 μl/well PBS for imaging.
Imaging was performed using an IN Cell Analyzer 1000 (GE Healthcare) utilizing the 51008bs dichroic for cells stained with Hoechst 33342 and Alexa Fluor 488. Exposure times were optimized from positive control wells and from untreated negative control wells stained with secondary antibody alone. Images from 15 fields per well were acquired to compensate for any cell loss during the bioassay and subsequent staining procedures. Measurements for total cell number and total SOX17 intensity were obtained from each well using IN Cell Developer Toolbox 1.7 (GE Healthcare) software. Segmentation for the nuclei was determined based on gray-scale levels (baseline range 100-300) and nuclear size. […]

Compound | Cell Number: % of positive control | Sox17 Expression: % of positive control | Sox17 Expression: Average Total Intensity | Cell Number: Average Total Cell Number | Cell Number, % of positive control | Sox17 Intensity % of positive control | SOX17 expression in the absence of activin A
CCN1CC(=O)NCCCc2cc(ccc2F)-c2ncnc(n2)Nc2cc(Cl)cc(c2)C1 [Compound 25, 10-Chloro-14-ethyl-22-fluoro-3,5,7,14,17,27-hexaazatetracyclo[19.3.1.1˜2,6˜0.1˜8,12˜]heptacosa-1(25), 2(27), 3,5,8(26), 9,11,21,23-nonaen-16-one] | 146.17 % of positive control | 20.32 % of positive control | 4.03E+07 | 4151 | – | – | –
O=C1NCCCc2cncc(c2)-c2ncnc(n2)Nc2cccc(c2)CN2CCC1CC2 [Compound 22, 1,8,10,12,16,22,30-Heptaazapentacyclo[22.2.2.1-3,7˜0.1˜9,13˜1-14,18˜]hentriaconta-3(31), 4,6,9(30), 10,12,14(29), 15,17-nonaen-23-one] | – | – | – | – | 132.7 % of positive control | 72.4 % of positive control | SOX17 expression was induced
CCN1CC(=O)NCCCc2cncc(c2)-c2ncnc(n2)Nc2cc(Cl)cc(c2)C1 [Compound 35, 10-Chloro-14-ethyl-3,5,7,14,17,23,27-heptaazatetracyclo[19.3.1.1˜2,6˜0.1˜8,12]Theptacosa-1(25), 2(27), 3,5,8(26), 9,11,21,23-nonaen-16-one] | – | – | – | – | 158.7 % of positive control | 86.8 % of positive control | SOX17 expression was induced
CN1CCC(=O)NCCCNc2cccc(c2)-c2ncnc(n2)Nc2cccc(c2)C1 [Compound 21, 14-Methyl-3,5,7,14,18,22,29-heptaazatetracyclo[21.3.1.1˜2,6˜0.1˜8,12˜]nonacosa-1(27), 2(29), 3,5,8(28), 9,11,23,25-nonaen-17-one] | 44.44 % of positive control | −0.61 % of positive control | −1.96E+06 | 4719 | – | – | –
O=C1CCN2CCN(CC2)Cc2cc(Cl)cc(c2)Nc2ncnc(n2)-c2cncc(c2)CCCN1 [Compound 34, 5-Chloro-1,8,10,12,16,22,26,32-octaazapentacyclo[24.2.2.1˜3.7˜0.1˜9,13˜0.1˜14.18˜]tritriaconta-3(33), 4,6,9(32), 10,12,14(31), 15,17-nonaen-23-one] | – | – | – | – | 114.8 % of positive control | 44.5 % of positive control | –
CN1CCC(=O)NCCCNc2ncccc2-c2ncnc(n2)Nc2cccc(c2)C1 [Compound 39, 9-Methyl-2,3,4,5,7,8,9,10-octahydro-16H-17,21-(azeno)-11,15-(metheno)pyrido[3,2-g][1,3,5,9,13,17]hexaazacyclotricosin-6(1H)-one] | – | – | – | – | 147.0 % of positive control | 35.2 % of positive control | –
CCN1CCCc2cccc(c2)-c2ncnc(n2)Nc2cccc(c2)CCNC(=O)C1 [Compound 29, 18-Ethyl-3,5,7,15,18,28-hexaazatetracyclo[20.3.1.1˜2,6˜0.1˜8,12˜]octacosa-1(26), 2(28), 3,5,8(27), 9,11,22,24-nonaen-16-one] | – | – | – | – | 136.0 % of positive control | 34.5 % of positive control | –
O=C1CCN2CCN(CC2)Cc2cccc(c2)Nc2ncnc(n2)-c2cncc(c2)CCCN1 [Compound 23, 1,8,10,12,16,22,26,32-Octaazapentacyclo[24.2.2.1-3,7˜0.1˜9,13˜0.1˜14,18˜]tritriaconta-3(33), 4,6,9(32), 10,12,14(31), 15,17-nonaen-23-one] | 24.13 % of positive control | −0.48 % of positive control | −1.56E+06 | 2563 | – | – | –
O=C1NCCCc2cncc(c2)-c2ncnc(n2)Nc2cccc(c2)CN2CCCC1C2 (stereo not shown) [Compound 17, 3,5,7,14,20,26,31-Heptaazapentacyclo[22.3.1.1-2,6˜1˜8,12˜1˜14,18˜]hentriaconta-1(28), 2(31), 3,5,8(30), 9,11,24,26-nonaen-19-one] | – | – | – | – | 133.8 % of positive control | −0.7 % of positive control | –
O=C1NCCCc2cncc(c2)-c2ncnc(n2)Nc2cc(Cl)cc(c2)CN2CCCC1C2 (stereo not shown) [Compound 37, 10-Chloro-3,5,7,14,20,26,31-heptaazapentacyclo[22.3.1.1˜2,6˜0.1˜8,12˜0.1˜14,18˜]hentriaconta-1(28), 2(31), 3,5,8(30), 9,11,24,26-nonaen-19-one] | – | – | – | – | 129.3 % of positive control | 29.1 % of positive control | –
